This assay addresses T1, α7 nicotinic ACh receptor ion channel expressed in mammalian HEK 293 cells (Rattus norvegicus, UniProt Q05941).
T1 construct: expressed in transfected cells
The experiment in a line: Ca2+-sensitive fluorescence-based assay for α7 nicotinic acetylcholine receptor channel function (FLIPR), agonist activity. As to conditions: HEK 293 cells, Ca2+ flux. It is filed as cell-based. The method, then:
II) A Ca^2+-Sensitive, Fluorescence-Based Assay α-7 for Nicotinic Acetylcholine Receptor Channel Function in Mammalian Cells (“FLIPR”).
Lead compounds are evaluated for agonist activity at the α7 nicotinic ACh receptor ion channel expressed in mammalian HEK 293 cells. Agonist potency and efficacy values are determined from kinetic fluorescence Ca^2+ influx measurements made using a 384 well FLIPR (Fluorescence Image Plate Reader). The utility of fluorescent indicators for measuring changes in intracellular divalent cation concentrations, particularly Ca^2+, for drug discovery endeavors is well documented (Rudiger, R., et al., Nature Reviews, 2003, 4:579-586; Gonzalez J. E., et al., Receptors and Channels, 2002, 8:283-295). In this assay, channel expressing HEK cell lines seeded in 384 well assay plates are loaded with a membrane permeant fluorescent Ca^2+ indicator dye, whose 510 nm green emission signal increases in response to elevation of intracellular Ca^2+ concentration. The basal fluorescence from the cells is monitored in real time, followed by the acute addition of test compounds. If the compound is an agonist at any of the non-selective cation channels, the latter open and allow the movement of extracellular Ca^2+ ions into the cell cytoplasm, where they bind to the Ca^2+ indicator dye, and produce an increase in fluorescence output signal, which is detected by a cooled CCD imaging camera.
Reagents: The acetomethoxy (AM) ester of the Ca^2+ indicator dye Fluo-4 was obtained from InVitrogen, (Carlsbad, Calif.). Acetylcholine and all buffer constituents were purchased from Sigma Chemical Company, St. Louis, Mo. G418 and Minimal Essential Medium were purchased from InVitrogen Life Technologies, Carlsbad, Calif. Fetal bovine serum was purchased from (InVitrogen, Carlsbad, Calif.).
HEK-293 cells were grown in Minimal Essential Medium containing 10% (v/v) fetal bovine serum at 37° C. in a 5% CO2 incubator. HEK-293 cells stably expressing the ion channels were grown in the same medium with the addition of 500 μg/ml G418.
HEK-293 cells expressing the ion channels of interest were plated in 384 well, black-walled, clear-bottomed, poly-D-lysine coated plates at a density of ˜20,000 cells/well in 20 μl of Minimal Essential Medium containing 10% (v/v) fetal bovine serum and incubated for 2 days at 29° C. in a 5% CO2 incubator. Prior to assay, cells were loaded with the Fluo-4 AM ester. Cell loading was accomplished by removing the culture medium and replacing it with 30 μl/well of the AM ester of the dye (5 μM) mixed with Hanks Balanced Salt Solution (#14175-095) containing 20 mM HEPES, 2.5 mM probenecid, 0.5 mM CaCl2, 1 mM MgCl2 and 10 μM atropine. Dye loading was allowed to proceed for 90 minutes at room temperature at which time the dye loading solution was removed and replaced with 40 μl/well of Hanks buffer. Cells loaded with dye were loaded onto a FLIPR384 (Molecular Devices, Sunnyvale, Calif.). Fluo-4 dye was excited using the 488 nm line of an argon laser. Emission was filtered using a 540+/−30 nm bandpass filter. For evaluation of the effects of test compounds using the Ca^2+ flux assay, compounds to be tested were provided in assay ready plates. For nicotinic receptor ion channel expressing cells, the assay was initiated by the addition of 20 μl/well of Hanks buffer containing test compounds. For all assays, data were collected at 1 Hz for 10 seconds (baseline), at which time the compound containing stimulus buffers are added, and further measurements collected at 0.33 Hz for 3 min.
The statistical robustness of the nicotinic receptor Ca^2+ flux assays is determined from blanks and totals wells. The totals wells define maximal channel activation for each compound test plate (Maximum efficacious dose of acetylcholine), and the blanks wells which contain matched DMSO only, define zero channel activation. […]
On the technique in general: Calcium assays in cells follow changes in intracellular calcium, usually with a dye or a luminescent sensor.

Setting [1] is: FLIPR α7 (EC50, nM), agonist potency.
The mark [2] stands for this setting: FLIPR α7 activity rating (EC50, nM), class rating of EC50.

Structures are written as SMILES.

T1 sequence (Q05941 23-502): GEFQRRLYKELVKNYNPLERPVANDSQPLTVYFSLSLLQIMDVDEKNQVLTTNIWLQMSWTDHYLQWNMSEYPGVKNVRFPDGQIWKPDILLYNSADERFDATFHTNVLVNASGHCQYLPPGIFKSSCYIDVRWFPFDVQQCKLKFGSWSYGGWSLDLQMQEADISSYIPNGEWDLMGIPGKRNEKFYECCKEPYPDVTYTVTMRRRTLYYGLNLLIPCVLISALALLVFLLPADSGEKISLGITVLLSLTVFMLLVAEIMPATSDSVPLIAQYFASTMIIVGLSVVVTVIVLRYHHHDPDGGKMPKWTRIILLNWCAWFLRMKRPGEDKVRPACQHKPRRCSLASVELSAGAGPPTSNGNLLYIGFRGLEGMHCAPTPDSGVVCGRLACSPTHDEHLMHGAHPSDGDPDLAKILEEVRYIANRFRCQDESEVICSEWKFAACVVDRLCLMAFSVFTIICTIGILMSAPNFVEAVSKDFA

On to `Clc1nc2n(c1Cl)C[C@]1(CN3CCC1CC3)O2` [Example 2a, (S)-5,6-Dichloro-3H-1′-azaspiro[imidazo[2,1-b]oxazole-2,3′-bicyclo[2.2.2]octane]], for which the concentration giving a half-maximal response (EC50) (as a rule, the midpoint of the concentration-response curve) by setting is: under setting [1], 1500 nM; under setting [2], 1000 to 100000 nM.
As to `Clc1nc2n(c1Cl)C[C@@]1(CN3CCC1CC3)O2` [Example 2b, (R)-5,6-Dichloro-3H-1′-azaspiro[imidazo[2,1-b]oxazole-2,3′-bicyclo[2.2.2]octane]], the EC50 is 14.2 nM under setting [1] and below 100 nM under setting [2].
As to `c1ccc(-c2nc3n(n2)C[C@]2(CN4CCC2CC4)O3)cc1` [Example 14a, (S)-2-Phenyl-6H-1′-azaspiro[oxazolo[3,2-b][1,2,4]triazole-5,3′-bicyclo[2.2.2]octane]], the EC50 was 437 nM under setting [1] and 100 to 1000 nM under setting [2].
The corresponding values for `c1ccc(-c2nc3n(n2)C[C@@]2(CN4CCC2CC4)O3)cc1` [Example 14b, (R)-2-Phenyl-6H-1′-azaspiro[oxazolo[3,2-b][1,2,4]triazole-5,3′-bicyclo[2.2.2]octane]] are 4.1 nM and below 100 nM.
The corresponding values for `c1ccc(-c2cn3c(n2)O[C@@]2(CN4CCC2CC4)C3)cc1` [Example 21a, (S)-6-Phenyl-3H-1′-azaspiro[imidazo[2,1-b]oxazole-2,3′-bicyclo[2.2.2]octane]] are 10 nM and below 100 nM.
With `c1ccc(-c2cn3c(n2)O[C@]2(CN4CCC2CC4)C3)cc1` [Example 21b, (R)-6-Phenyl-3H-1′-azaspiro[imidazo[2,1-b]oxazole-2,3′-bicyclo[2.2.2]octane]], the EC50 under setting [1] came to 53 nM and the 50% effective concentration (EC50) under setting [2] is below 100 nM.

Source of the values: patent US10174052B2, “Quinuclidine compounds as α-7 nicotinic acetylcholine receptor ligands” (BRISTOL-MYERS SQUIBB COMPANY, priority 2014, dated 2019).
